Source: US8546380B2, “Aminodihydrothiazine derivatives” (Shionogi & Co., Ltd., priority 2005, dated 2013)
Read-outs that look alike come from different tables or passages of the source.

What was measured:
[1] = biological target: recombinant human BACE-1 protein (Homo sapiens (Human), UniProt P56817); assay: Measurement of Inhibition of β-Secretase Activity; assay type: biochemical; details: 3 h at 30° C., pH5.0, read-out: IC50 value
Method in brief: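 Recombinant human BACE-1 incubated with compound and Eu-cryptate-labelled biotinylated peptide substrate 3 h at 30° C in 50 mM sodium acetate pH 5.0, 0.008% Triton X-100. Streptavidin-XL665 in KF-containing phosphate buffer pH 7.0 then added, 1 h at 30° C, for time-resolved FRET read-out.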

[2] = fluorescence-quenched peptide substrate 18 nM, BACE-1 7.4 nM
[3] = recombinant human BACE-1 protein

Chain of recombinant human BACE-1 protein (P56817 46-501): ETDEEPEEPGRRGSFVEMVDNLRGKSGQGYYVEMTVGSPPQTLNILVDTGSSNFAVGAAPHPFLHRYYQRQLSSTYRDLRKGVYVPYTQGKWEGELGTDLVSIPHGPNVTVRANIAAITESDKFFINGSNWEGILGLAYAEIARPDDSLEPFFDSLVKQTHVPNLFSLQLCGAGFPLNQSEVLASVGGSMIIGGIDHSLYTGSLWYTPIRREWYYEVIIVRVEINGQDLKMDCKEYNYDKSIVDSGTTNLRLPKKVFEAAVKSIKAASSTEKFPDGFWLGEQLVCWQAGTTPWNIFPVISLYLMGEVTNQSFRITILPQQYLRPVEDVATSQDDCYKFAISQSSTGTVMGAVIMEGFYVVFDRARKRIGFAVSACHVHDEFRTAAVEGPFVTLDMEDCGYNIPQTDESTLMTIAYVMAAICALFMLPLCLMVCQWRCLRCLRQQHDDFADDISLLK

| Compound | melting point | IC50 [1, 2] | IC50 [1, 3] |
| --- | --- | --- | --- |
| CC1(c2cc(NC(=O)c3ccc(Cl)cn3)cc(C(=O)Nc3ccccc3)c2)CCSC(N)=N1 (stereo not drawn) [Compound 1217] | 263 to 266 °C | < 100 µM | – |
| CC1(c2cccc(NC(=O)c3ncc(C(F)(F)F)cc3F)c2)CCSC(N)=N1 (stereo not drawn) [Compound 643] | 155 to 157 °C | < 100 µM | – |
| CC1(c2cccc(CNC(=O)c3ccc(Cl)cc3)c2)CCSC(N)=N1.Cl (stereo not drawn) [Compound 1184] | 149 to 150 °C | < 100 µM | – |
| CC1(c2cccc(/C=C/c3ccc(Cl)cc3)c2)CCSC(N)=N1.Cl (stereo not drawn) [Compound 161] | 247 to 251 °C | – | 7.7 µM |
| CC1(c2ccc3ccccc3c2)CCSC(N)=N1.Cl (stereo not drawn) [Compound 3] | 285 °C (dec.) | < 100 µM | – |
| CC1(c2cccc(/C=N/O)c2)CCSC(N)=N1 (stereo not drawn) [Compound 611] | 200 to 202 °C | < 100 µM | – |
| CC1(c2cccc(OCCOc3ccc(Cl)cc3)c2)CCSC(N)=N1.Cl (stereo not drawn) [Compound 121] | 166 to 167 °C | < 100 µM | – |
| CC1(c2cccc(/C=N/OCc3cccnc3)c2)CCSC(N)=N1 (stereo not drawn) [Compound 584] | 152 to 153 °C | < 100 µM | – |
| CC1(c2cccc(/C=N/OCc3ccccn3)c2)CCSC(N)=N1 (stereo not drawn) [Compound 1193] | 182 to 183 °C | < 100 µM | – |
| CC1(c2cccc(NC(=O)c3ccc(Cl)cc3Cl)c2)CCSC(N)=N1 (stereo not drawn) [Compound 625] | 107 to 109 °C | – | 1.29 µM |
| Cc1ccccc1C1(C)CCSC(N)=N1 (stereo not drawn) [Compound 756] | 110 to 111 °C | < 100 µM | – |
| CC1(c2ccc(F)cc2)CCSC(N)=N1 (stereo not drawn) [Compound 549] | 100 to 101 °C | < 100 µM | – |
| CC1(c2cc(Br)cc(NC(=O)c3ccc(Br)cc3)c2)CCSC(N)=N1.Cl (stereo not drawn) [Compound 1262] | 278 to 281 °C | – | 0.14 µM |
| CC1(c2ccc3c(c2)CCCC3)CCSC(N)=N1 (stereo not drawn) [Compound 6] | 147 to 148 °C | < 100 µM | – |
| COc1ccc(C(=O)Nc2cccc(C3(C)CCSC(N)=N3)c2)nn1 (stereo not drawn) [Compound 405] | 192 to 194 °C | < 100 µM | – |
| COc1ccc2cc(C3(C)CCSC(N)=N3)ccc2c1 (stereo not drawn) [Compound 871] | 212 to 213 °C | < 100 µM | – |
| CC1(c2cccc(CO)c2)CCSC(N)=N1 (stereo not drawn) [Compound 501] | 155 to 156 °C | < 100 µM | – |
| CC1(c2cccc(NC(=O)c3ncc(Cl)cc3Cl)c2)CCSC(N)=N1.Cl (stereo not drawn) [Compound 127] | 280 to 285 °C | – | 0.054 µM |
| CC1(c2cccc(NC(=O)c3ccc4ccccc4n3)c2)CCSC(N)=N1 (stereo not drawn) [Compound 935] | 161 to 165 °C | < 100 µM | – |
| COCc1cc(NC(=O)c2ccc(C)cc2)cc(C2(C)CCSC(N)=N2)c1 (stereo not drawn) [Compound 465] | 194.6 °C | – | 3.24 µM |
| CC1(c2ccccc2)CC(c2ccccc2)SC(N)=N1 (stereo not drawn) [Compound 835] | 139 to 140 °C | < 100 µM | – |
| CC1(c2cccc(OCCCc3ccc(Cl)cc3)c2)CCSC(N)=N1 (stereo not drawn) [Compound 1207] | 106 to 108 °C | – | 4 µM |
| CC1(c2cccc(NC(=O)c3cnccn3)c2)CCSC(N)=N1 (stereo not drawn) [Compound 164] | 91 to 96 °C | < 100 µM | – |
| CC1(c2cccc(NC(=O)c3ccc(C(F)(F)F)cn3)c2)CCSC(N)=N1.Cl (stereo not drawn) [Compound 1244] | 268 to 288 °C | – | 0.13 µM |
| Cc1cc(C(=O)Nc2cc(Br)cc(C3(C)CCSC(N)=N3)c2)c(C)o1.Cl (stereo not drawn) [Compound 436] | 254 to 256 °C | – | 0.16 µM |

More lines, now with the values ahead:

| melting point | IC50 [1, 2] | IC50 [1, 3] | Compound |
| --- | --- | --- | --- |
| 178 to 182 °C | < 100 µM | – | CC(C)Oc1cnc(C(=O)Nc2cccc(C3(C)CCSC(N)=N3)c2)cn1 (stereo not drawn) [Compound 410] |
| 211 to 213 °C | < 100 µM | – | CC1(c2cc(NC(=O)c3ccc(C(F)(F)F)cn3)ccc2F)CCSC(N)=N1 (stereo not drawn) [Compound 396] |
| 169 to 170 °C | < 100 µM | – | CC1(c2ccc(Oc3ccccc3)cc2)CCSC(N)=N1 (stereo not drawn) [Compound 1055] |
| 194 to 195 °C | < 100 µM | – | CC1(c2cccc(CNC(=O)c3ccc(F)cc3)c2)CCSC(N)=N1.Cl (stereo not drawn) [Compound 1241] |
| 205 to 208 °C | < 100 µM | – | CC1(c2cc(NC(=O)c3ncc(Cl)cn3)ccc2F)CCSC(N)=N1 (stereo not drawn) [Compound 204] |
| 195 to 198 °C | < 100 µM | – | CC1(c2ccc(F)c(C(=O)Nc3ccc(Cl)cn3)c2)CCSC(N)=N1 (stereo not drawn) [Compound 1125] |
| 137 to 139 °C | – | 5 µM | CCOC(=O)/C=C/c1cccc(C2(C)CCSC(N)=N2)c1 (stereo not drawn) [Compound 417] |
| 191 to 193 °C | – | 1.5 µM | CC1(c2cccc(C(=O)Nc3ccc(Cl)cn3)c2)CCSC(N)=N1.Cl.Cl (stereo not drawn) [Compound 220] |
| 247 to 251 °C (dec.) | – | 0.174 µM | COc1cc(NC(=O)c2ccc(Cl)cn2)cc(C2(C)CCSC(N)=N2)c1.Cl (stereo not drawn) [Compound 1035] |
| 91 to 94 °C | – | 0.278 µM | Cc1cc(C(=O)Nc2cc(Br)cc(C3(C)CCSC(N)=N3)c2)c(C)o1 (stereo not drawn) [Compound 731] |
| 179 to 182 °C | < 100 µM | – | CC1(c2cccc(NCc3ccncc3)c2)CCSC(N)=N1 (stereo not drawn) [Compound 728] |
| 169 to 170 °C | < 100 µM | – | COc1ccc(CCCOc2cccc(C3(C)CCSC(N)=N3)c2)cc1.Cl (stereo not drawn) [Compound 936] |
| 134 to 140 °C | < 100 µM | – | CC1(c2cccc(/C=C/C(=O)Nc3ccccc3)c2)CCSC(N)=N1 (stereo not drawn) [Compound 1109] |
| 147 to 149 °C | < 100 µM | – | CC1(c2cccc(/C=N/OCc3ccncc3)c2)CCSC(N)=N1 (stereo not drawn) [Compound 456] |
| 269 °C (dec.) | – | 0.061 µM | CC1(c2cccc(NC(=O)c3ccc(Cl)cn3)c2)CCSC(N)=N1.Cl (stereo not drawn) [Compound 793] |
| 191 to 193 °C | < 100 µM | – | CC(C)c1ccc(C(=O)Nc2cccc(C3(C)CCSC(N)=N3)c2)nc1 (stereo not drawn) [Compound 1005] |
| 209 to 219 °C | – | 2.5 µM | CC1(c2cccc(/C=C/C(=O)Nc3ccc(Cl)cn3)c2)CCSC(N)=N1.Cl.Cl (stereo not drawn) [Compound 504] |
| 139 to 141 °C | < 100 µM | – | COc1ccc(C2(C)CCSC(N)=N2)cc1F (stereo not drawn) [Compound 551] |
| 219 to 222 °C | < 100 µM | – | CC1(c2ccc(F)cc2)CCCSC(N)=N1.Cl (stereo not drawn) [Compound 129] |
| 122 to 125 °C | – | 0.93 µM | CC1(c2cccc(NC(=O)c3ccc(C#N)cc3)c2)CCSC(N)=N1 (stereo not drawn) [Compound 498] |
